{"source": "patent US10788502B2", "about": "“Erythrocyte sedimentation inhibitor” (FUJIMORI KOGYO CO., LTD., priority 2014, dated 2020)", "key": {"[1]": {"system": "erythrocytes in blood anticoagulated with sodium citrate", "experiment": "Blood sedimentation of citrated blood left to stand in a glass tube or blood container", "assay_type": "cell-based", "details": "30 minutes", "procedure": "(§1) A solution of DIDS (Tokyo Chemical Industry Co., Ltd.) in physiological saline was added to blood anticoagulated with sodium citrate to a final concentration of 0.15 mg/ml or 1.5 mg/ml, respectively. The resulting mixture was mixed, and placed in a glass tube having a diameter of 6 mm (FIG. 1) or a blood container for measurement of thrombus formation (FIG. 2), followed by being left to stand.\nas §1, with “DNDS” for “DIDS”, “0.02 mg/ml, 0.1 mg/ml,” for “0.15 mg/ml”, “0.2” for “1.5”, “3),” for “1) or a blood container for measurement of thrombus formation (FIG. 2),”\nA solution of DNDS (Tokyo Chemical Industry Co., Ltd.) in physiological saline was added to blood anticoagulated with sodium citrate to a final concentration of 0.5 mg/ml or 1.0 mg/ml, respectively. The resulting mixture was mixed, and placed in a glass tube having a diameter of 6 mm. The glass tube was then inclined at an angle of 30°, and left to stand (FIG. 4)."}, "[2]": {"experiment": "Solubility in water", "assay_type": "physicochemical"}, "[3]": {"system": "citrate blood (thrombus formation; blood coagulation capacity and platelet function)", "experiment": "Microchip capillary perfusion: pressure changes caused by formation of thrombi composed of fibrin and platelets", "assay_type": "cell-based", "details": "for blood sedimentation: blood sample of the perfusion test; for thrombus formation (pressure pattern during perfusion): perfusion 10 μl/min for 30 minutes, collagen and tissue thromboplastin coated capillary", "procedure": "The apparatus described in FIG. 12 of Patent Document 1 was used.\nA capillary having a width of 300 μm, depth of 80 μm, and length of 1.5 cm formed on a microchip was coated with type I collagen (manufactured by Nitta Gelatin Inc.) and tissue thromboplastin (manufactured by Sysmex Corporation). The capillary was perfused with citrate blood supplemented with CTI (corn trypsin inhibitor) (final concentration, 50 μg/ml), calcium chloride (final concentration, 12 mM), and DIDS (final concentration, 0 or 1.5 mg/ml) or DNDS (final concentration, 0.3 mg/ml) fed from a blood container at a flow rate of 10 μl/min for 30 minutes, while changes in the pressure caused by formation of thrombi composed of fibrin and platelets were continuously measured.\nFIG. 5 is a graph showing the pressure patterns during the perfusion with blood samples. The pressure reflects formation of thrombi composed of fibrin and activated platelets, and comprehensively reflects the blood coagulation capacity and the platelet function. […] B represents the pressure changes in the case of the blood sample supplemented with DIDS (1.5 mg/ml), and C represents the pressure changes in the case of the perfusion with the blood supplemented with DNDS (0.3 mg/ml)."}}, "data": [{"smiles": "O=[N+]([O-])c1ccc(C=Cc2ccc([N+](=O)[O-])cc2S(=O)(=O)[O-])c(S(=O)(=O)[O-])c1.[Na+].[Na+]", "note": "[DNDS, disodium 4,4′-dinitrostilbene-2,2′-disulfonate]", "values": [{"measurement": "blood sedimentation relative to the control", "setting": "[1]; 0.02 mg/ml final concentration, 6 mm glass tube", "result": "suppressed"}, {"measurement": "blood sedimentation relative to the control", "setting": "[1]; 0.1 mg/ml final concentration, 6 mm glass tube", "result": "suppressed"}, {"measurement": "blood sedimentation", "setting": "[1]; 0.2 mg/ml final concentration, 6 mm glass tube", "result": "almost completely suppressed"}, {"measurement": "blood sedimentation relative to the control", "setting": "[1]; 0.5 mg/ml final concentration, 6 mm glass tube inclined at an angle of 30°", "result": "suppressed"}, {"measurement": "blood sedimentation relative to the control", "setting": "[1]; 1.0 mg/ml final concentration, 6 mm glass tube inclined at an angle of 30°", "result": "suppressed"}, {"measurement": "solubility in water", "setting": "[2]", "result": "soluble in water"}, {"measurement": "blood sedimentation", "setting": "[3]; 0.3 mg/ml", "result": "strongly suppresses blood sedimentation"}, {"measurement": "thrombus formation (pressure pattern during perfusion)", "setting": "[3]; 0.3 mg/ml", "result": "does not affect thrombus formation"}]}, {"smiles": "O=S(=O)(O)c1cc(N=C=S)ccc1C=Cc1ccc(N=C=S)cc1S(=O)(=O)O", "note": "[DIDS, 4,4′-Diisothiocyanatostilbene-2,2′-disulfonic acid]", "values": [{"measurement": "blood sedimentation", "setting": "[1]; 0.15 mg/ml final concentration, 6 mm glass tube or blood container for measurement of thrombus formation", "result": "rather suppressed"}, {"measurement": "blood sedimentation", "setting": "[1]; 1.5 mg/ml final concentration, glass tube and container having an inclined bottom", "result": "completely suppressed"}, {"measurement": "blood sedimentation", "setting": "[3]; 1.5 mg/ml", "result": "strongly suppresses blood sedimentation"}, {"measurement": "thrombus formation (pressure pattern during perfusion)", "setting": "[3]; 1.5 mg/ml", "result": "does not affect thrombus formation"}]}]}
